In the test the target is T1, human full-length MKNK1 (Homo sapiens, UniProt Q9BUB5, T385D).
T1 construct: purchased Carna Biosciences 02-145; host or cells: insect cells, baculovirus expression system
Kind of test: MKNK1 kinase high ATP assay (TR-FRET). In kind it is biochemical. As to conditions: high ATP (2 mM), 15 min preincubation with enzyme, GST-MKNK1 (T344D). As to the method:
MKNK1-inhibitory activity at high ATP of compounds of the present invention after their preincubation with MKNK1 was quantified employing the TR-FRET-based MKNK1 high ATP assay as described in the following paragraphs.
A recombinant fusion protein of Glutathione-S-Transferase (GST, N-terminally) and human full-length MKNK1 (amino acids 1-424 and T344D of accession number BAA 19885.1), expressed in insect cells using baculovirus expression system and purified via glutathione sepharose affinity chromatography, was purchased from Carna Biosciences (product no 02-145) and used as enzyme. As substrate for the kinase reaction the biotinylated peptide biotin-Ahx-IKKRKLTRRKSLKG (C-terminus in amide form) was used, which can be purchased e.g. from the company Biosyntan (Berlin-Buch, Germany).
For the assay 50 nL of a 100fold concentrated solution of the test compound in DMSO was pipetted into a black low volume 384well microtiter plate (Greiner Bio-One, Frickenhausen, Germany), 2 μL of a solution of MKNK1 in aqueous assay buffer [50 mM HEPES pH 7.5, 5 mM MgCl2, 1.0 mM dithiothreitol, 0.005% (v/v) Nonidet-P40 (Sigma)] was added and the mixture was incubated for 15 min at 22° C. to allow pre-binding of the test compounds to the enzyme before the start of the kinase reaction. Then the kinase reaction was started by the addition of 3 μL of a solution of adenosine-tri-phosphate (ATP, 3.3 mM=>final conc. in the 5 μL assay volume is 2 mM) and substrate (0.1 μM=>final conc. in the 5 μL assay volume is 0.06 μM) in assay buffer and the resulting mixture was incubated for a reaction time of 30 min at 22° C. The concentration of MKNK1 was adjusted depending of the activity of the enzyme lot and was chosen appropriate to have the assay in the linear range, typical concentrations were in the range of 0.003 μg/mL. The reaction was stopped by the addition of 5 μL of a solution of TR-FRET detection reagents (5 nM streptavidine-XL665 [Cisbio Bioassays, Codolet, France] and 1 nM anti-ribosomal protein […] (pSer236)-antibody from Invitrogen [#44921G] and 1 nM LANCE EU-W1024 labeled ProteinG [Perkin-Elmer, product no. AD0071]) in an aqueous EDTA-solution (100 mM EDTA, 0.1% (w/v) bovine serum albumin in 50 mM HEPES pH 7.5).
The resulting mixture was incubated for 1 h at 22° C. to allow the formation of complex between the phosphorylated biotinylated peptide and the detection reagents. Subsequently the amount of phosphorylated substrate was evaluated by measurement of the resonance energy transfer from the Eu-chelate to the streptavidine-XL. Therefore, the fluorescence emissions at 620 nm and 665 nm after excitation at 350 nm were measured in a TR-FRET reader, e.g. a Rubystar (BMG Labtechnologies, Offenburg, Germany) or a Viewlux (Perkin-Elmer). The ratio of the emissions at 665 nm and at […] was taken as the measure for the amount of phosphorylated substrate. The data were normalised (enzyme reaction without inhibitor=0% inhibition, all other assay components but no enzyme=100% inhibition).

T1 sequence (Q9BUB5 1-424 isoform Q9BUB5-2 T344D): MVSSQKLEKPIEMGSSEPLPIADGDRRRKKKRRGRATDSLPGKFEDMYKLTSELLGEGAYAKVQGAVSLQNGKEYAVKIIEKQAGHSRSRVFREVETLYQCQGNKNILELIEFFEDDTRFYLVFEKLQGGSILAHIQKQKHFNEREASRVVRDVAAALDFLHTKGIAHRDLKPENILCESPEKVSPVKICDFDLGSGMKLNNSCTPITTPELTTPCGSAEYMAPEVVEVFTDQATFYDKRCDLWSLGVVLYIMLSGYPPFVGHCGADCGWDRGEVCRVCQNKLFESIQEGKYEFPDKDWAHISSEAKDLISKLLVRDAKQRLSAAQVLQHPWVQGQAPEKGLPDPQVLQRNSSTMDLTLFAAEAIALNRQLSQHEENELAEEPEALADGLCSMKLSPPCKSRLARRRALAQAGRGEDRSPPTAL

Compound `CS(=O)(=O)CCCNC(=O)C1CCc2[nH]c3ncnc(Nc4ccc5ncsc5c4)c3c2C1` (racemic) [Example 49, (RS)-4-(1,3-Benzothiazol-6-ylamino)-N-[3-(methylsulfonyl)propyl]-6,7,8,9-tetrahydro-5H-pyrimido[4,5-b]indole-6-carboxamide] showed an IC50 of 0.231 µM. `Cc1nc2cc(Nc3ncnc4[nH]c5c(c34)CC(C(=O)NCCCS(C)(=O)=O)CC5)ccc2s1` (racemic) [Example 50, (RS)-4-[(2-Methyl-1,3-benzothiazol-5-yl)amino]-N-[3-(methylsulfonyl)propyl]-6,7,8,9-tetrahydro-5H-pyrimido[4,5-b]indole-6-carboxamide] came in with a 50% inhibitory concentration (IC50) of 6.41 µM. `CS(=O)(=O)CCCNC(=O)C1CCc2[nH]c3ncnc(Nc4ccc5c(c4)OCC(=O)N5)c3c2C1` (racemic) [Example 51, (RS)—N-[3-(Methylsulfonyl)propyl]-4-[(3-oxo-3,4-dihydro-2H-1,4-benzoxazin-7-yl)amino]-6,7,8,9-tetrahydro-5H-pyrimido[4,5-b]indole-6-carboxamide] came in with a half-inhibitory concentration (IC50) of 0.37 µM. This IC50 is about 17-fold lower than that of the compound before. Next, `CS(=O)(=O)CCCNC(=O)C1CCc2[nH]c3ncnc(Nc4ccc5c(c4)CCS5(=O)=O)c3c2C1` (racemic) [Example 52, (RS)-4-[(1,1-Dioxido-2,3-dihydro-1-benzothiophen-5-yl)amino]-N-[3-(methylsulfonyl)propyl]-6,7,8,9-tetrahydro-5H-pyrimido[4,5-b]indole-6-carboxamide]: 0.904 µM.

As for `CC(=O)c1ccc(Nc2ncnc3[nH]c4c(c23)CC(C(=O)NCCCS(C)(=O)=O)CC4)cc1` (racemic) [Example 53, (RS)-4-[(4-Acetylphenyl)amino]-N-[3-(methylsulfonyl)propyl]-6,7,8,9-tetrahydro-5H-pyrimido[4,5-b]indole-6-carboxamide], 0.335 µM corresponded to half-maximal inhibition (IC50). For `Cc1ccc(Nc2ncnc3[nH]c4c(c23)CC(C(=O)NCCCS(C)(=O)=O)CC4)c(O)c1` (racemic) [Example 54, (RS)-4-[(2-Hydroxy-4-methylphenyl)amino]-N-[3-(methylsulfonyl)propyl]-6,7,8,9-tetrahydro-5H-pyrimido[4,5-b]indole-6-carboxamide], the IC50 was found to be 3.08 µM.

For `CS(=O)(=O)CCCNC(=O)C1CCc2[nH]c3ncnc(Nc4cccc(-c5cnco5)c4)c3c2C1` (racemic) [Example 55, (RS)—N-[3-(Methylsulfonyl)propyl]-4-{[3-(1,3-oxazol-5-yl)phenyl]amino}-6,7,8,9-tetrahydro-5H-pyrimido[4,5-b]indole-6-carboxamide], the IC50 was found to be 0.511 µM. Compound `CS(=O)(=O)CCCNC(=O)C1CCc2[nH]c3ncnc(Oc4ccc5[nH]ncc5c4)c3c2C1` (racemic) [Example 56, (RS)-4-(1H-Indazol-5-yloxy)-N-[3-(methylsulfonyl)propyl]-6,7,8,9-tetrahydro-5H-pyrimido[4,5-b]indole-6-carboxamide] gave a half-maximal inhibitory concentration (IC50) of 0.226 µM. Next, `CS(=O)(=O)CCCNC(=O)C1CCc2[nH]c3ncnc(Nc4cccc5c4CCCC5)c3c2C1` (racemic) [Example 58, (RS)—N-[3-(Methylsulfonyl)propyl]-4-(5,6,7,8-tetrahydronaphthalen-1-ylamino)-6,7,8,9-tetrahydro-5H-pyrimido[4,5-b]indole-6-carboxamide]: 1.17 µM.

In the case of `Cc1ccc(Nc2ncnc3[nH]c4c(c23)CC(C(=O)NCCCS(C)(=O)=O)CC4)cc1S(=O)(=O)O` (racemic) [Example 59, (RS)-2-Methyl-5-[(6-{[3-(methylsulfonyl)propyl]carbamoyl}-6,7,8,9-tetrahydro-5H-pyrimido[4,5-b]indol-4-yl)amino]benzenesulfonic acid], the 50% inhibitory concentration (IC50) turned out to be 0.124 µM. Next, `CS(=O)(=O)CCCNC(=O)C1CCc2[nH]c3ncnc(Nc4cccc5c4OC(F)(F)O5)c3c2C1` (racemic) [Example 60, (RS)-4-[(2,2-Difluoro-1,3-benzodioxol-4-yl)amino]-N-[3-(methylsulfonyl)propyl]-6,7,8,9-tetrahydro-5H-pyrimido[4,5-b]indole-6-carboxamide]: 1.36 µM; `CS(=O)(=O)CCCNC(=O)C1CCc2[nH]c3ncnc(Nc4cc5cn[nH]c5cc4F)c3c2C1` (racemic) [Example 61, (RS)-4-[(6-Fluoro-1H-indazol-5-yl)amino]-N-[3-(methylsulfonyl)propyl]-6,7,8,9-tetrahydro-5H-pyrimido[4,5-b]indole-6-carboxamide]: 0.017 µM. Next, `CS(=O)(=O)CCCNC(=O)C1CCc2[nH]c3ncnc(Nc4cc(OC(F)(F)F)ccc4F)c3c2C1` (racemic) [Example 62, (RS)-4-{[2-Fluoro-5-(trifluoromethoxy)phenyl]amino}-N-[3-(methylsulfonyl)propyl]-6,7,8,9-tetrahydro-5H-pyrimido[4,5-b]indole-6-carboxamide]: 0.677 µM. Next, `COP(C)(=O)c1ccc(Nc2ncnc3[nH]c4c(c23)CC(C(=O)NCCCS(C)(=O)=O)CC4)cc1` (racemic) [Example 64, (RS)-Methyl methyl{4-[(6-{[3-(methylsulfonyl)propyl]carbamoyl}-6,7,8,9-tetrahydro-5H-pyrimido[4,5-b]indol-4-yl)amino]phenyl}phosphinate]: 19.7 µM.

The compound `CSc1cc2c(cc1Nc1ncnc3[nH]c4c(c13)CC(C(=O)NCCCS(C)(=O)=O)CC4)OCCO2` (racemic) [Example 65, (RS)-4-{[7-(Methylsulfanyl)-2,3-dihydro-1,4-benzodioxin-6-yl]amino}-N-[3-(methylsulfonyl)propyl]-6,7,8,9-tetrahydro-5H-pyrimido[4,5-b]indole-6-carboxamide] gave an IC50 of 13.3 µM. Next, `COc1ccc(C(F)(F)F)cc1Nc1ncnc2[nH]c3c(c12)CC(C(=O)NCCCS(C)(=O)=O)CC3` (racemic) [Example 67, (RS)-4-{[2-Methoxy-5-(trifluoromethyl)phenyl]amino}-N-[3-(methylsulfonyl)propyl]-6,7,8,9-tetrahydro-5H-pyrimido[4,5-b]indole-6-carboxamide]: 0.028 µM. Next, `COc1cc2nc(C)sc2cc1Nc1ncnc2[nH]c3c(c12)CC(C(=O)NCCCS(C)(=O)=O)CC3` (racemic) [Example 68, (RS)-4-[(5-Methoxy-2-methyl-1,3-benzothiazol-6-yl)amino]-N-[3-(methylsulfonyl)propyl]-6,7,8,9-tetrahydro-5H-pyrimido[4,5-b]indole-6-carboxamide]: 6.16 µM. Next, `COc1cc(N2CCOCC2)ccc1Nc1ncnc2[nH]c3c(c12)CC(C(=O)NCCCS(C)(=O)=O)CC3` (racemic) [Example 71, (RS)-4-{[2-Methoxy-4-(morpholin-4-yl)phenyl]amino}-N-[3-(methylsulfonyl)propyl]-6,7,8,9-tetrahydro-5H-pyrimido[4,5-b]indole-6-carboxamide]: 10.8 µM. The compound `COc1ccc(Nc2ncnc3[nH]c4c(c23)CC(C(=O)NCCCS(C)(=O)=O)CC4)c(OC)c1` (racemic) [Example 73, (RS)-4-[(2,4-Dimethoxyphenyl)amino]-N-[3-(methylsulfonyl)propyl]-6,7,8,9-tetrahydro-5H-pyrimido[4,5-b]indole-6-carboxamide] had an IC50 of 4.14 µM. `COc1cccc(Nc2ncnc3[nH]c4c(c23)CC(C(=O)NCCCS(C)(=O)=O)CC4)c1OC` (racemic) [Example 74, (RS)-4-[(2,3-Dimethoxyphenyl)amino]-N-[3-(methylsulfonyl)propyl]-6,7,8,9-tetrahydro-5H-pyrimido[4,5-b]indole-6-carboxamide] gave an IC50 of 1.16 µM. Next, `COc1cccc(C)c1Nc1ncnc2[nH]c3c(c12)CC(C(=O)NCCCS(C)(=O)=O)CC3` (racemic) [Example 75, (RS)-4-[(2-Methoxy-6-methylphenyl)amino]-N-[3-(methylsulfonyl)propyl]-6,7,8,9-tetrahydro-5H-pyrimido[4,5-b]indole-6-carboxamide]: 7.67 µM. Next, `CS(=O)(=O)CCCNC(=O)C1CCc2[nH]c3ncnc(Nc4cccc(F)c4F)c3c2C1` (racemic) [Example 77, (RS)-4-[(2,3-Difluorophenyl)amino]-N-[3-(methylsulfonyl)propyl]-6,7,8,9-tetrahydro-5H-pyrimido[4,5-b]indole-6-carboxamide]: 3.63 µM.
